Assay results reported in EP3866610B1, “CHOCOLATE MATRIX COMPRISING CURCUMIN AND RESVERATROL” (priority 2018, dated 2020).
≈ marks a conversion by molar mass, not a printed value. Read-outs that look alike come from different tables or passages of the source.

Key:
[1] = type: physicochemical
Method: (§1) The SSF was prepared following the instructions included in the article published by Minekus et al. in 2014 in the journal Food & Function (Minekus M, Alminger M, Alvito P, et al. A standardized static in vitro digestion method suitable for food - an international consensus. Food & Funct. 2014. 5:1113-1124). In detail, the SSF was prepared by mixing the following saline solutions: • KCI at the concentration of 15.1 mmol/l, • KH2PO4 at the concentration of 3.7 mmol/l, • NaHCO3 at the concentration of 13.6 mmol/l, • MgCl2(H2O)6 at the concentration of 0.15 mmol/l, and • (NH4)2CO3 at the concentration of 0.06 mmol/l. […]
(§2) Each sample as illustrated below was analysed in triplicate and the concentration of curcumin and resveratrol was calculated on the basis of two calibration curves previously constructed using the curcumin and resveratrol supplied as reference substance and dissolved in 96% ethanol. For processing the calibration curves, the curcumin and resveratrol solutions (prepared by dissolving an exactly weighed quantity of substance in 96% ethanol) were prepared and subjected to analysis in a concentration range, from 0.5 to 200 µg/ml . […]

[2] = system: HaCat cells; type: in vitro ADME, Human; conditions: HaCat cells incubated 120 minutes at 37°C, mean of technical triplicates
Method: (§3) The chromatography analyses were performed using a HPLC-DAD Agilent 1100 system (Agilent, Waldbronn, Germany), comprising a quaternary pump, self-sampler with thermostat equipped with a 100 µl injection loop, column thermostat, DAD Agilent 1100 detector (Agilent, Waldbronn, Germany). For the system control and data analysis the Chemstation software was used. The separation of the compounds was obtained with a Gemini C18 110A analytical column (150 mm × 2 mm; particle diameter 5 µm), connected to a suitable pre-column, both purchased from Phenomenex, Torrance, CA, USA. […]
as §2
The cells were detached mechanically using a scraper in 2 ml of PBS and transferred into a 15 ml Falcon test tube for being centrifuged at 1500 rpm for 5 minutes. […] The results obtained, reported in Table 4, were expressed as a mean of the technical triplicates. […]

[3] = physchem; type: physicochemical; conditions: dmem medium, mean of technical triplicates, read-out: Concentration in DMEM medium
Method: as §3, §2
Subsequently, the cell pellet was re-suspended in 24 ml of DMEM medium and the sample was centrifuged at 6000 rpm for 10 minutes to remove the insoluble part. […] The quantities of the compounds added to the medium and were selected on the basis of the first experimental phase. […]

[4] = physchem; type: physicochemical; conditions: maltitol 1.35 g, curcumin 50 mg, resveratrol 50 mg, extraction with 6 ml SSF at room temperature
Method: as §1, §2

Row | solubility in SSF [1] | Concentration in cell pellet (absorption by the cells) ([2]; no matrix, pellet re-suspended in 500 µl 96° ethanol) [µg/mL] | Concentration in cell pellet (absorption by the cells) ([2]; with chocolate matrix, maltitol and ethanol) [µg/mL] | solubility ([3]; no matrix, 167 mg curcumin and 167 mg resveratrol in 20 ml DMEM, filtered) [mg/mL] | solubility ([3]; with chocolate matrix: 200 mg curcumin, 200 mg resveratrol, 5.4 g maltitol, 12 g dark chocolate, 799.2 µl ethanol, hexane-defatted, re-suspended in 24 ml DMEM) [mg/mL] | Concentration ([4]; SAMPLE 2: 2.8528 g dark chocolate, ethanol 99.9 µL) [µg/mL] | solubility ([4]; simulated salivary fluid, SAMPLE 1: 2.8528 g dark chocolate, ethanol 199.8 µL, read-out: Concentration) [mg/mL] | SMILES
1 | substantial insolubility |  |  |  |  |  |  | COc1cc(/C=C/C(=O)CC(=O)/C=C/c2ccc(O)c(OC)c2)ccc1O [Curcumin]
2 |  | 0 | 3.66 | 0.0318 (≈ 139 µM) | 0.125 (≈ 547 µM) | 82.47 | 0.156 (≈ 683 µM) | Oc1ccc(/C=C/c2cc(O)cc(O)c2)cc1 [Resveratrol, 3,5,4'-trihydroxy-trans-stilbene]
